These results are taken from paper PMC11945486, “TAS1R2/TAS1R3 Single-Nucleotide Polymorphisms Affect Sweet Taste Receptor Activation by Sweeteners: The SWEET Project” (Nutrients, 2025).

Where a chain is given by its changes, count along the chain named.

The target in experiment [1] is T1, mTAS1R2-WT/mTAS1R3-WT (Mus musculus, UniProt Q925D8+Q925I4).
T1 construct: expressed in transfected cells; host or cells: HEK293T-Gα16gust44
T1 sequence (Q925I4 20-843): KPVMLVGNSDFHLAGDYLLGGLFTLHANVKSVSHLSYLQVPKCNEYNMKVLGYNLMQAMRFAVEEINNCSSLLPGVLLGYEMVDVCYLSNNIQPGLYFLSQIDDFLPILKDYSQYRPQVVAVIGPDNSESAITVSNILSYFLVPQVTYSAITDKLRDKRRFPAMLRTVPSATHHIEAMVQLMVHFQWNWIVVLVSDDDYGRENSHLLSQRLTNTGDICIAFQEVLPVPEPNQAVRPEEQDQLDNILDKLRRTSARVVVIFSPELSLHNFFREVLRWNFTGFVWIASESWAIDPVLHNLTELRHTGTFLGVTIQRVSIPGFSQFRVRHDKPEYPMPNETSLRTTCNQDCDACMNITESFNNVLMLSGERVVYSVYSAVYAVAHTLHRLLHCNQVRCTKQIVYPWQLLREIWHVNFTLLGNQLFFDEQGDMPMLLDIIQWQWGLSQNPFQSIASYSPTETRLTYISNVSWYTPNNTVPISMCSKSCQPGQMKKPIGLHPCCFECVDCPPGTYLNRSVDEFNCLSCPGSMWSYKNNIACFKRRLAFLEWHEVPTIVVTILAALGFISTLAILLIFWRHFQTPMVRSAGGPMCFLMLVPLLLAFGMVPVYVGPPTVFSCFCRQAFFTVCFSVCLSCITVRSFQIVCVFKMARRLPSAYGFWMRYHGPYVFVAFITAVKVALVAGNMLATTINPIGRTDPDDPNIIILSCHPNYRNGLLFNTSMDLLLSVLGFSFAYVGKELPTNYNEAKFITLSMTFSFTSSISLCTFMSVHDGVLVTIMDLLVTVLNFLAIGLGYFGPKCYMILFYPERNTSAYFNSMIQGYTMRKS
T1 sequence (Q925D8 21-858): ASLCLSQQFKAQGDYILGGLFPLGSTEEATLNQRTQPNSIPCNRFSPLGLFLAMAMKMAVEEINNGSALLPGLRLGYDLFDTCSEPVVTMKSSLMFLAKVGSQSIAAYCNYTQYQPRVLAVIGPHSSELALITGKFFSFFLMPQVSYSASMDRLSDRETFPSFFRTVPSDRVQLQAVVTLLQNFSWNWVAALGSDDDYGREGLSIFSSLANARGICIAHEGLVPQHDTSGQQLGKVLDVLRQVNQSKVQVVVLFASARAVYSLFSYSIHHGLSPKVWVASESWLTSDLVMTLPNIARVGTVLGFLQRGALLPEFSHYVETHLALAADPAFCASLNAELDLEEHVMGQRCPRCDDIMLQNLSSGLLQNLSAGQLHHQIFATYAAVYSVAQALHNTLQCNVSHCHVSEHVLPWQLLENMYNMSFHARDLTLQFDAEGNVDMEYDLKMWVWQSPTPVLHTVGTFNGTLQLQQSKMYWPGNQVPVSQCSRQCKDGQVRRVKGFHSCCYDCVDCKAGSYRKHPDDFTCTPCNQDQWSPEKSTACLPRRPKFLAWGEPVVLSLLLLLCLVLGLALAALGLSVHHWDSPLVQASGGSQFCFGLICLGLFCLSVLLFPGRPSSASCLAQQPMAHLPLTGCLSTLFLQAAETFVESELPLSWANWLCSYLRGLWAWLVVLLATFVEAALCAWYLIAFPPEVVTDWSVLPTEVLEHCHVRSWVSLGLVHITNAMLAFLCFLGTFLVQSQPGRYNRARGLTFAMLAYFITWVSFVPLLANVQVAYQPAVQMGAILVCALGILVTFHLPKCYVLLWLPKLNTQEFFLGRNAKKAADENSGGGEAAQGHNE
Nature of the experiment: Calcium mobilisation assay, HEK293T-Gα16gust44 cells, mouse sweet taste receptor WT. Type of experiment: cell-based. The conditions noted are these: mTAS1R2-WT + mTAS1R3-WT; "-": no activation. As for the experimental part:
(§1) The HEK293T cells were kindly provided by Jay P. Slack (Givaudan Flavors Corporation; Cincinnati, OH, USA). HEK293T cells stably transfected with Gα16gust44 [43, 67] were seeded in poly-D-lysine-coated clear-bottom black 96-well plates (0.35 × 10^5 cells/well) in high-glucose DMEM supplemented with 2 mM GlutaMAX, 10% dialysed foetal bovine serum with penicillin/streptomycin and G418 (400 μg/mL) at 37 °C and 6.3% CO2 in a humidified atmosphere as previously reported. […] As a negative control, HEK293T cells were mock-transfected with the empty expression vector. After a further 24 h of incubation, the HEK293T cells were washed with C1 buffer (130 mM NaCl, 5 mM KCl, 10 mM HEPES pH 7.4 and 2 mM CaCl2). The 96-well plates containing the cells were then stimulated with sweet-tasting compounds. […] Different concentration ranges were tested depending on the sweet compound injected. The Ca^2+ changes were expressed as fractional changes in fluorescent light intensity: ΔF/F = (F − F0)/F0, where F was the fluorescent light intensity at each point, and F0 was the value of emitted fluorescent light prior to stimulus application. To calculate dose–response relationships, the changes in fluorescence upon stimulus application were averaged, mock-subtracted and baseline-corrected. The dose–response data obtained were adjusted using a 4-parameter logistic equation. The half-maximal effective concentrations (EC50 values) and maximal signal amplitudes were calculated using SigmaPlot software (version 15.0) (Systat Software; San Jose, CA, USA).
(§2) HEK293T-Gα16gust44 cells were transiently cotransfected with pcDNA6-MAX-mTAS1R2-FLAG, pcDNA4-MAX-mTAS1R3-WT-FLAG or pcDNA4-MAX-mTAS1R3-I60T-FLAG, and pCMV-GCaMP5G as previously described in detail. After 24 h, the cells were washed with C1 buffer and stimulated with a logarithmically increasing range of sweetener concentrations. Calcium responses during automated application were monitored using a FlexStation®3 Multi-Mode microplate reader. The dose–response curves, EC50 values and maximal signal amplitudes were calculated as previously described.
(§3) For in vitro calcium mobilisation assay performed on hTAS1R2-SNPs, hTAS1R3-SNPs and mTAS1R3-I60T, 6 to 7 concentrations were tested for each sweet compound, plus buffer alone. All concentration–receptor combinations were measured in duplicate, and each experiment was repeated at least 4 times (8 wells/concentration). Results were expressed for each concentration as ΔF/F mean ± SEM and represented as dose–response curves.

The target of experiment [2] is T2, mTAS1R2-WT/mTAS1R3-I60T (Mus musculus, UniProt Q925D8+Q925I4, I60T).
T2 construct: expressed in transfected cells; host or cells: HEK293T-Gα16gust44
T2 sequence (Q925I4 20-843): T1 sequence (Q925I4 20-843)
T2 sequence (Q925D8 21-858 I60T): T1 sequence (Q925D8 21-858) with I40T
Nature of the experiment: Calcium mobilisation assay, HEK293T-Gα16gust44 cells, mouse TAS1R3-I60T variant. Type of experiment: cell-based. The conditions noted are these: mTAS1R2-WT + mTAS1R3-I60T; "-": no activation. The protocol:
as §1, §2, §3
For orientation: Calcium flux is commonly read through the fluorescence of an indicator in the cells.

What is called EC50 is the concentration needed to bring the measured effect to its halfway point. Regarding `O=C1NS(=O)(=O)c2ccccc21` [Saccharin, saccharin], the EC50 in experiment [1] was found to be 1.52 ± 0.017 mM; in experiment [2], 2.54 ± 0.061 mM.
